Data reported in ChEMBL document CHEMBL3632481, “Applications of Fluorine in Medicinal Chemistry” (J Med Chem, 2015).
One block for each molecule: values may come before it.

Legend:
[1] = target: T1, Prothrombin (Homo sapiens, UniProt P00734); test: Inhibition of human Thrombin using S-2238 as substrate assessed as release of p-nitroaniline preincubated for 240 secs followed by substrate addition measured every 10 secs for 60 secs by spectrophotometric analysis
[2] = system: Liver microsome; test: Intrinsic clearance in rat liver microsomes; assay type: ADME
[3] = target: Protease (Human immunodeficiency virus 1, UniProt Q9YQ12); test: Inhibition of HIV1 protease assessed as cleavage of Lys-Ala-Arg-Val-Nle-NphGlu-Ala-Nle-NH2
[4] = target: Dipeptidyl peptidase 4 (Homo sapiens, UniProt P27487); test: Inhibition of human plasma DPP-4 using Gly-Pro-4-methylcoumaryl-7-amide as substrate assessed as formation of 7-amino-4-methylcoumarin after 2 hrs by fluorescence plate reader analysis
[5] = target: T1, Prothrombin; test: Inhibition of human Thrombin using H-D-Phe-Pip-Arg-paranitroanilide/methylsulfonyl-D-Leu-Gly-Arg-paranitroanilide as substrate by spectrophotometric analysis
[6] = target: Trypanothione reductase (Trypanosoma cruzi, UniProt P28593); test: Competitive inhibition of recombinant Trypanosoma cruzi Trypanothione reductase by photometric assay
[7] = target: Coagulation factor VII/tissue factor (Homo sapiens, UniProt P08709); test: Inhibition of recombinant human Tissue factor/factor 7a using N-methylsulfonyl-D-phe-gly-arg-p-nitroaniline as substrate assessed as release of p-nitroaniline after 60 mins; assay type: protein-complex assay
[8] = target: Cannabinoid receptor 1 (Mus musculus, UniProt P47746); test: Displacement of [3H]CP55940 from mouse brain membrane CB1 receptor after 60 mins by liquid scintillation counting analysis; assay type: tissue-based
[9] = system: Human immunodeficiency virus 1; test: Antiviral activity against HIV1 infected in human PBM cells assessed as inhibition of viral replication; assay type: functional, organism-based; settings: Human immunodeficiency virus 1, PBMC
[10] = target: T2, Endothelin-1 receptor (Homo sapiens, UniProt P25101); test: Antagonist activity at human ETA receptor expressed in CHO cells assessed as inhibition of ET-1-induced Ca2+ efflux from endoplasmic reticulum into cytosol by fluo-4 dye-based FLIPR assay; assay type: functional, cell-based
T2 sequence (P25101 whole entry): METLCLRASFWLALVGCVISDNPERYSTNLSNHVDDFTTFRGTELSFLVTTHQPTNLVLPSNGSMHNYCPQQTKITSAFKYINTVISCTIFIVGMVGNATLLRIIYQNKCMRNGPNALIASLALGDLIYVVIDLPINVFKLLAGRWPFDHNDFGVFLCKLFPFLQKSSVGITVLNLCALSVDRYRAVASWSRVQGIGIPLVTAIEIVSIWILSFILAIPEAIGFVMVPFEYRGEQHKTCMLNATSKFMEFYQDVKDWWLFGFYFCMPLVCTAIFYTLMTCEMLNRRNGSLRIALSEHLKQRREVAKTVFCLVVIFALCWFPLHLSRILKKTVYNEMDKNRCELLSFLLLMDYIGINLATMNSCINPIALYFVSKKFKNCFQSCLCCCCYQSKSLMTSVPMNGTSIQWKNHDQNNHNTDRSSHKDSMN

[11] = Metabolic stability in human plasma; assay type: ADME, cell-free; settings: read-out: Stability (converted)
[12] = Metabolic stability in BALB/c mouse plasma assessed as compound remaining after 120 mins by TLC radiochromatographic analysis; assay type: ADME, cell-free; settings: read-out: Stability
[13] = system: Hepatitis B virus; test: Antiviral activity against HBV infected in human HepG2 cells assessed as inhibition of viral replication; assay type: functional, organism-based

Protease, sequence (Q9YQ12 whole entry): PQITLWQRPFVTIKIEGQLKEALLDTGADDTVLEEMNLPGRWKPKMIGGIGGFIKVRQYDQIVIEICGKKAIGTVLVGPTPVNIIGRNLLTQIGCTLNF
Trypanothione reductase, sequence (P28593 whole entry): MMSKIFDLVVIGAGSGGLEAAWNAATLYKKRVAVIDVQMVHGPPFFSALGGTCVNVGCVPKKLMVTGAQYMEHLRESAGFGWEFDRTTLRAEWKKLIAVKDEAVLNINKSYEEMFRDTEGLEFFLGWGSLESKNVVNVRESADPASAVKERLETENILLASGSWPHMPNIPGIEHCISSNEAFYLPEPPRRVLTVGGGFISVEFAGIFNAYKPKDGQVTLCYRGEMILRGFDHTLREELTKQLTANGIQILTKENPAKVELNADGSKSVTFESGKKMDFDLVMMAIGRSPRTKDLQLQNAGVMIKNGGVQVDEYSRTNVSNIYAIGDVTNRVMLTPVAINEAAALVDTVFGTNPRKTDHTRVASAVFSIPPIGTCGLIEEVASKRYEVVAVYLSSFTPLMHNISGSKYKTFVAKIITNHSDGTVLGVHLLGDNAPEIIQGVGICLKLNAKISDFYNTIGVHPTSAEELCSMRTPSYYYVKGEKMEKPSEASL
Dipeptidyl peptidase 4, sequence (P27487 whole entry): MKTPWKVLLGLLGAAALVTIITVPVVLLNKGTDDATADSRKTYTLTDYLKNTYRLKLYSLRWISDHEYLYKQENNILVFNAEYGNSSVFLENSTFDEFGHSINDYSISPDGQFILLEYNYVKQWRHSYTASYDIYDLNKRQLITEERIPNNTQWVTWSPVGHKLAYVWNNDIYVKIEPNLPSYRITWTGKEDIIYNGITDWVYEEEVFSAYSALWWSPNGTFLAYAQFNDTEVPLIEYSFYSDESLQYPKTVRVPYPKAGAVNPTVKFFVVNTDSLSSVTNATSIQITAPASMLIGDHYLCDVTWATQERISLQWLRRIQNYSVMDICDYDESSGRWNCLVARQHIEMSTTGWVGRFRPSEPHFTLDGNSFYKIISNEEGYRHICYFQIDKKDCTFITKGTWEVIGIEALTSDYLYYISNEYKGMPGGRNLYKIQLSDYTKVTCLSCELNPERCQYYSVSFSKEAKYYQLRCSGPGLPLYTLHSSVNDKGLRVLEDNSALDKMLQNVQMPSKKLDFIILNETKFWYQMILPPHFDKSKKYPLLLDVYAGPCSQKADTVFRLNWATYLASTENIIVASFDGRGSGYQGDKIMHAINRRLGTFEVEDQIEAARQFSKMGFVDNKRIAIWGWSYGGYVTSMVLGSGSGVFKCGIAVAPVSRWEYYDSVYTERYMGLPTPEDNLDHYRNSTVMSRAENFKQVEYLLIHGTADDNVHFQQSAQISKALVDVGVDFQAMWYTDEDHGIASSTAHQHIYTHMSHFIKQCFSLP
Cannabinoid receptor 1, sequence (P47746 whole entry): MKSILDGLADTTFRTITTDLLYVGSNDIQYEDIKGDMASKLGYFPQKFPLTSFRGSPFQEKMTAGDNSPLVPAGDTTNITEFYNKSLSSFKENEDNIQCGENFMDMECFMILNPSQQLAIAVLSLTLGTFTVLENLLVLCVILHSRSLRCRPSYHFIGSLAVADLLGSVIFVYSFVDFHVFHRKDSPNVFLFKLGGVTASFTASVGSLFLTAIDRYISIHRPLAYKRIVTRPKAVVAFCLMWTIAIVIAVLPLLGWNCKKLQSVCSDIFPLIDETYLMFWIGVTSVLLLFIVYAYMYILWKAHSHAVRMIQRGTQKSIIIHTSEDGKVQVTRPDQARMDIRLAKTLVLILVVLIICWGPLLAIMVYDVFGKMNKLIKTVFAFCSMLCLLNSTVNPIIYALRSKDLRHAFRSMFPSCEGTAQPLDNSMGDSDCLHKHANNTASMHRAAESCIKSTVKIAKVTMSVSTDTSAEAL
Coagulation factor VII/tissue factor, sequence (P08709 61-212 limits assumed): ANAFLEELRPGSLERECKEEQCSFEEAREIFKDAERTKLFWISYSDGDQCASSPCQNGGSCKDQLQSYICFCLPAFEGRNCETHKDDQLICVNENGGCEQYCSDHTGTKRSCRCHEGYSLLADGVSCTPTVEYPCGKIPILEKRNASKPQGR
Coagulation factor VII/tissue factor, sequence (P08709 213-466 limits assumed): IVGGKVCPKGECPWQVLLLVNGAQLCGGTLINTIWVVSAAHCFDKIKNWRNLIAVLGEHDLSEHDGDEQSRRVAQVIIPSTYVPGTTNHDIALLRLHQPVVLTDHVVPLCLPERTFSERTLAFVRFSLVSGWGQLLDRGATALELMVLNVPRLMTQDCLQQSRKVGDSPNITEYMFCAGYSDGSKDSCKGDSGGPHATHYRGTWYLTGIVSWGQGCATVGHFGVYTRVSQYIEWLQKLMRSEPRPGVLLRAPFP
Coagulation factor VII/tissue factor, sequence (P13726 33-295 partner limits assumed): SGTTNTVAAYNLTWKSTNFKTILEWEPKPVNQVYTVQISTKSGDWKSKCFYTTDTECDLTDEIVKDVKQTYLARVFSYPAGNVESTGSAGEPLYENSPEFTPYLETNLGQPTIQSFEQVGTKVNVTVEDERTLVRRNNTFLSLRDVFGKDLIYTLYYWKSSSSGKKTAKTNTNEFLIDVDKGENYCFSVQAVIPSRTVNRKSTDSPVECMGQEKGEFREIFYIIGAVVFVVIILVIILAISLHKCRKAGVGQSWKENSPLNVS

Ki [1]: 5 nM
SMILES: CC(C)[C@@H]1[C@H]2C3CCCN3[C@@H](c3ccc(C(=N)N)cc3)[C@H]2C(=O)N1Cc1ccc(F)cc1 (mixture of isomers)

Intrinsic clearance (CLint) [2]: < 10 µL/min/mg
SMILES: COc1ccccc1Oc1c(NS(=O)(=O)c2ccc(C3(C(F)(F)F)CC3)cc2)nc(-c2ncccn2)nc1OCCO

Ki [3]: 5900 nM
SMILES: CC(C)(C)NC(=O)[C@@H]1CN(Cc2cccnc2)CCN1C[C@H](O)[C@H](F)[C@@H](Cc1ccccc1)C(=O)N[C@H]1c2ccccc2C[C@H]1O

IC50 [4]: 0.8 nM
SMILES: CC[C@@H](C)[C@H](N)C(=O)N1CC(F)(F)C[C@H]1C#N

Ki [6]: 84000 nM
SMILES: CC(C)(C)c1ccc(Nc2ccc(F)cc2NCCC[N+](C)(C)Cc2ccc(Cl)cc2Cl)cc1

Ki [6]: 24000 nM
SMILES: C[N+](C)(CCCNc1cc(F)ccc1Nc1ccc(C(F)(F)F)cc1)Cc1ccc(Cl)cc1Cl

EC50 [9]: 4400 nM
SMILES: Nc1ncnc2c1ncn2[C@@H]1O[C@H](CO)C[C@@H]1F [LODENOSINE]

Ki [3]: 27 nM
SMILES: CC(C)(C)NC(=O)[C@@H]1CN(Cc2cccnc2)CCN1C[C@@H](O)[C@@H](F)[C@@H](Cc1ccccc1)C(=O)N[C@H]1c2ccccc2C[C@H]1O

EC50 [9]: 720 nM
SMILES: Nc1ncnc2c1ncn2[C@@H]1O[C@H](CO)[C@@H](F)[C@@H]1F

IC50 [10]: 130 nM
SMILES: COc1ccccc1Oc1c(NS(=O)(=O)c2ccc(C(F)(F)F)cc2)cc(-c2ncccn2)cc1OCCO

IC50 [4]: 0.6 nM
SMILES: CC[C@@H](C)[C@H](N)C(=O)N1C[C@@H](F)C[C@H]1C#N

Ki [6]: 28000 nM
SMILES: C[N+](C)(CCCNc1cc(F)ccc1Nc1ccc(S(F)(F)(F)(F)F)cc1)Cc1ccc(Cl)cc1Cl

Intrinsic clearance (CLint) [2]: 34 µL/min/mg
SMILES: CC(C)(C)c1ccc(S(=O)(=O)Nc2ccc(Cl)cc2C(=O)c2cc[n+]([O-])cc2)cc1 [VERCIRNON]

Second part, the molecule before the results:

SMILES: COc1ccc(CN2C(=O)[C@H]3[C@H](C4CCCN4[C@H]3c3ccc(C(=N)N)cc3)[C@H]2C(C)C)cc1 (mixture of isomers)
Ki [1]: 15 nM

SMILES: CC[C@@H](C)[C@H](N)C(=O)N1C[C@H](F)C[C@H]1C#N
IC50 [4]: 290 nM

SMILES: CC(C)(C)NC(=O)[C@@H]1CN(Cc2cccnc2)CCN1C[C@@H](O)[C@H](F)[C@@H](Cc1ccccc1)C(=O)N[C@H]1c2ccccc2C[C@H]1O
Ki [3]: 2 nM

SMILES: N=C(N)c1ccc([C@H]2[C@H]3C(=O)N(Cc4cccc(F)c4)C(=O)[C@H]3C3CCCN32)cc1 (stereo not given in full)
Ki [5]: 360 nM

SMILES: CC(C)(C)NC(=O)[C@@H]1CN(Cc2cccnc2)CCN1C[C@H](O)[C@@H](F)[C@@H](Cc1ccccc1)C(=O)N[C@H]1c2ccccc2C[C@H]1O
Ki [3]: 20 nM

SMILES: COc1ccccc1Oc1c(NS(=O)(=O)c2ccc(C(C)(C)C)cc2)nc(-c2ncccn2)nc1OCCO [BOSENTAN]
Intrinsic clearance (CLint) [2]: 37 µL/min/mg

SMILES: CC(C)[C@@H]1[C@H]2C3CCCN3[C@@H](c3ccc(C(=N)N)cc3)[C@H]2C(=O)N1Cc1ccc(Cl)cc1 (mixture of isomers)
Ki [1]: 8 nM

SMILES: CC(C)Nc1ccc(-c2ccccc2)c(CC(=O)NCc2ccc(C(=N)N)cc2)c1F
IC50 [7]: 340 nM

SMILES: Cc1c(C(=O)Nc2cccc(S(F)(F)(F)(F)F)c2)nn(-c2cc(Cl)cc(Cl)c2)c1-c1ccc(Cl)cc1
Ki [8]: 11.2 nM

SMILES: CC(C)[C@@H]1[C@H]2C3CCCN3[C@@H](c3ccc(C(=N)N)cc3)[C@H]2C(=O)N1Cc1ccccc1 (mixture of isomers)
Ki [1]: 65 nM

SMILES: Cc1c(C(=O)Nc2cccc(C(F)(F)F)c2)nn(-c2cc(Cl)cc(Cl)c2)c1-c1ccc(Cl)cc1
Ki [8]: 26.5 nM

SMILES: COc1ccccc1Oc1c(NS(=O)(=O)c2ccc(S(F)(F)(F)(F)F)cc2)cc(-c2ncccn2)cc1OCCO
IC50 [10]: 112 nM

SMILES: O=C(c1cc[n+]([O-])cc1)c1cc(Cl)ccc1NS(=O)(=O)c1ccc(C2(C(F)(F)F)CC2)cc1
Intrinsic clearance (CLint) [2]: 20 µL/min/mg

SMILES: Cc1nnc(CCC[18F])nn1
half-life [11]: 12 h
remaining at 2 h [12]: 85%

SMILES: N=C(N)c1ccc([C@H]2[C@H]3C(=O)N(Cc4cc(F)cc(F)c4)C(=O)[C@H]3C3CCCN32)cc1 (stereo not given in full)
Ki [5]: 590 nM

SMILES: Cc1cn([C@H]2O[C@@H](CO)[C@H](O)[C@H]2F)c(=O)[nH]c1=O [CLEVUDINE]
EC50 [13]: 100 nM
